Assay results taken from ChEMBL document CHEMBL2157932, “Synthesis and pharmacological evaluation of carbamic acid 1-phenyl-3-(4-phenyl-piperazine-1-yl)-propyl ester derivatives as new analgesic agents” (Bioorg Med Chem Lett, 2012).
pIC50: −log10 of the molar value.

Experiments:
[1] = molecular target: T1, 5-hydroxytryptamine receptor 1A (Rattus norvegicus) (UniProt P19327); experiment: Displacement of [3H]-8-OH-DPAT from 5HT1A receptor in rat hippocampus at 1 uM; assay type: tissue-based
T1 sequence (whole entry): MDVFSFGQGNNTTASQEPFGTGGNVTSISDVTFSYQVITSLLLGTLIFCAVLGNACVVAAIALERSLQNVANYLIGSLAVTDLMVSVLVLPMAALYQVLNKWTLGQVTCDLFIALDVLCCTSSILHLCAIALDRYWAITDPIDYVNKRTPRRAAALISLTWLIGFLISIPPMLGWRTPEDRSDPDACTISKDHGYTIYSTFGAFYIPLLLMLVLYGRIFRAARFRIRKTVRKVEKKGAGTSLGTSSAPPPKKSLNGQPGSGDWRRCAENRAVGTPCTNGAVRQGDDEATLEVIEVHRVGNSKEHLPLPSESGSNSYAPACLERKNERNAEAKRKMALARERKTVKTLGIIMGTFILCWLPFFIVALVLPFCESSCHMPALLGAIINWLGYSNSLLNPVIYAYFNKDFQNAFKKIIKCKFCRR

[2] = molecular target: 5-hydroxytryptamine receptor 2A (Rattus norvegicus) (UniProt P14842); experiment: Displacement of [3H]-ketanserin from 5HT2A receptor in rat cortical membrane at 1 uM; assay type: cell membranes
Chain of 5-hydroxytryptamine receptor 2A (Rattus norvegicus) (P14842 whole entry): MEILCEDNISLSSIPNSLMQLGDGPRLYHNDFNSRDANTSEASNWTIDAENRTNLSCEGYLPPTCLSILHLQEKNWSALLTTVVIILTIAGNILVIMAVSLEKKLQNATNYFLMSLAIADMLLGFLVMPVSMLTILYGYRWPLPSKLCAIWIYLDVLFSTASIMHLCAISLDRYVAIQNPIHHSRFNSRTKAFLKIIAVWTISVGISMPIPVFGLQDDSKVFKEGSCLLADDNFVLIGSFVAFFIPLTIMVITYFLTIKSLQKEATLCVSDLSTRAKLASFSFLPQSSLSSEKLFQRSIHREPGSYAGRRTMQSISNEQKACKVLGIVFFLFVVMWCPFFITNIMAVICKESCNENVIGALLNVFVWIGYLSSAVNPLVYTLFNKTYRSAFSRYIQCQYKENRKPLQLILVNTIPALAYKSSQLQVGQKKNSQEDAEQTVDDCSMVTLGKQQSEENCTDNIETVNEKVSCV

Mus musculus [3] = experiment: Analgesic activity in mouse assessed as inhibition of acetic acid-induced writhing response at 10 mg/kg, po administered 0.5 to 1 hr before acetic acid challenge; assay type: functional
Mus musculus [4] = experiment: Analgesic activity in mouse assessed as inhibition of acetic acid-induced writhing response at 10 mg/kg, ip administered 0.5 to 1 hr before acetic acid challenge; assay type: functional; conditions: route intraperitoneal
[5] = molecular target: T2, 5-hydroxytryptamine receptor 1A (Rattus norvegicus, UniProt P19327); experiment: Displacement of [3H]-8-OH-DPAT from 5HT1A receptor in rat hippocampus; assay type: tissue-based
T2 sequence (P19327 whole entry): T1 sequence (whole entry)

[6] = molecular target: 5-hydroxytryptamine receptor 2A (Rattus norvegicus, UniProt P14842); experiment: Displacement of [3H]-ketanserin from 5HT2A receptor in rat cortical membrane; assay type: cell membranes
Chain of 5-hydroxytryptamine receptor 2A (P14842 whole entry): as above

Mus musculus [7] = experiment: Neurotoxicity in mouse at 50 mg/kg, ip by rotarod test; assay type: toxicity, organism-based; parameters: dose 50 mg/kg, route intraperitoneal; conditions: in vivo
[8] = Neurotoxicity in po dosed mouse by rotarod test; assay type: toxicity, organism-based; conditions: in vivo
Mus musculus [9] = experiment: Analgesic activity in po dosed mouse assessed as inhibition of acetic acid-induced writhing response administered 0.5 to 1 hr before acetic acid challenge; assay type: functional
Mus musculus [10] = experiment: Analgesic activity in ip dosed mouse assessed as inhibition of acetic acid-induced writhing response administered 0.5 to 1 hr before acetic acid challenge; assay type: functional
Mus musculus [11] = experiment: Antinociceptive activity in po dosed mouse by hot plate test; assay type: functional
Mus musculus [12] = experiment: Antinociceptive activity in late phase po dosed mouse by formalin test; assay type: functional
Rattus norvegicus = experiment: Antiinflammatory activity in po dosed rat persistent inflammatory pain model assessed as inhibition of carrageenan-induced mechanical hyperalgesia; assay type: functional
[13] = Half life in human liver microsomes by LC/MS/MS; assay type: ADME, Microsome

NC(=O)OC(CCN1CCN(c2ccccc2)CC1)c1cccc(Cl)c1 (single isomer, unassigned)
inhibition [1]: 76.4% | inhibition [2]: 93.7% | inhibition in vivo at 10 mg/kg (Mus musculus [3]): 59% | inhibition in vivo at 10 mg/kg (Mus musculus [4]): 100%

Cc1ccc(N2CCN(CCC(OC(N)=O)c3ccccc3)CC2)cc1 (single isomer, unassigned)
pIC50 [5]: 5.89 | pIC50 [6]: 6.43

COc1ccc(N2CCN(CCC(OC(N)=O)c3ccc(Cl)cc3Cl)CC2)cc1 (single isomer, unassigned)
inhibition in vivo at 10 mg/kg (Mus musculus [3]): 16%

NC(=O)OC(CCN1CCN(c2ccccc2)CC1)c1ccc([N+](=O)[O-])cc1 (single isomer, unassigned)
inhibition [1]: 81.4% | inhibition [2]: 88% | inhibition in vivo at 10 mg/kg (Mus musculus [3]): 91.2% | inhibition in vivo at 10 mg/kg (Mus musculus [4]): 100% | Activity (Mus musculus [7]): Toxic | TD50 [8]: 53.4 mg/kg

CN1CC[C@]23c4c5ccc(O)c4O[C@H]2[C@@H](O)C=C[C@H]3[C@H]1C5 [MORPHINE]
ED50 (Mus musculus [9]): 5.57 mg/kg | ED50 (Mus musculus [10]): 0.96 mg/kg | ED50 (Mus musculus [11]): 13.5 mg/kg | ED50 (Mus musculus [12]): 9.15 mg/kg | ED50 (Rattus norvegicus): 0.6 mg/kg

Cc1ccc(N2CCN(CCC(OC(N)=O)c3ccccc3)CC2)c(C)c1 (single isomer, unassigned)
inhibition in vivo at 10 mg/kg (Mus musculus [3]): 34%

COc1ccc(C(CCN2CCN(c3ccc(OC)cc3)CC2)OC(N)=O)cc1 (stereo unspecified)
inhibition in vivo at 10 mg/kg (Mus musculus [3]): 53%

COc1ccc(N2CCN(CCC(OC(N)=O)c3ccc(Cl)c(Cl)c3)CC2)cc1 (single isomer, unassigned)
inhibition in vivo at 10 mg/kg (Mus musculus [3]): 61%

COc1ccc(N2CCN(CCC(OC(N)=O)c3ccc(Cl)c(C(F)(F)F)c3)CC2)cc1 (single isomer, unassigned)
inhibition in vivo at 10 mg/kg (Mus musculus [3]): 46%

NC(=O)OC(CCN1CCN(c2ccccc2)CC1)c1ccc(Cl)cc1 (single isomer, unassigned)
inhibition [1]: 64.6% | inhibition [2]: 84.6% | ED50 (Mus musculus [9]): 2.1 mg/kg | half-life [13]: 15 min

COc1cc(OC)cc(N2CCN(CCC(OC(N)=O)c3ccccc3)CC2)c1 (single isomer, unassigned)
inhibition in vivo at 10 mg/kg (Mus musculus [3]): 13%

Cc1cccc(N2CCN(CCC(OC(N)=O)c3ccccc3)CC2)c1 (single isomer, unassigned)
pIC50 [5]: 7.22 | pIC50 [6]: 7.03

O[C@@H](CCN1CCN(c2ccccc2)CC1)c1ccccc1
pIC50 [5]: 6.31 | pIC50 [6]: 6.54 | inhibition in vivo at 10 mg/kg (Mus musculus [4]): 66.7%

COc1ccc(N2CCN(CCC(OC(N)=O)c3ccccc3)CC2)cc1 (racemic)
pIC50 [5]: 5.70 | inhibition in vivo at 10 mg/kg (Mus musculus [3]): 72% | ED50 (Mus musculus [10]): 0.14 mg/kg | TD50 [8]: 122 mg/kg | half-life [13]: 124 min

COc1ccc(N2CCN(CCC(OC(N)=O)c3ccc(C)cc3C)CC2)cc1 (single isomer, unassigned)
inhibition in vivo at 10 mg/kg (Mus musculus [3]): 62%

NC(=O)O[C@@H](CCN1CCN(c2ccccc2)CC1)c1ccccc1
pIC50 [5]: 6.11 | pIC50 [6]: 5.99 | inhibition in vivo at 10 mg/kg (Mus musculus [4]): 87.8%

NC(=O)OC(CCN1CCN(c2ccccc2Cl)CC1)c1ccccc1 (single isomer, unassigned)
pIC50 [5]: 4.28 | pIC50 [6]: < 4.00

CC(C)(C)c1ccc(C(CCN2CCN(c3ccccc3)CC2)OC(N)=O)cc1 (single isomer, unassigned)
inhibition [1]: 44.4% | inhibition [2]: 98.8% | inhibition in vivo at 10 mg/kg (Mus musculus [3]): 62%

COc1ccc(N2CCN(CCC(OC(N)=O)c3ccc(Cl)cc3)CC2)cc1 (single isomer, unassigned)
inhibition in vivo at 10 mg/kg (Mus musculus [3]): 51%

Cc1ccc(C(CCN2CCN(c3ccccc3)CC2)OC(N)=O)cc1 (single isomer, unassigned)
inhibition [1]: 59.6% | inhibition [2]: 85.6% | inhibition in vivo at 10 mg/kg (Mus musculus [4]): 100%

NC(=O)OC(CCN1CCN(c2ccccc2)CC1)c1ccc(F)cc1 (stereo unspecified)
inhibition [1]: 65.5% | inhibition [2]: 84.7% | inhibition in vivo at 10 mg/kg (Mus musculus [4]): 99% | Activity (Mus musculus [7]): Non-toxic | TD50 [8]: 141 mg/kg | half-life [13]: 18 min
